The values below are quoted from earlier work in patent EP0134290A1, “Constant release rate solid dosage theophyllineformulation” (VEREX LABORATORIES, INC., priority 1983, dated 1985).

The conditions of the data set: similar dose of regular theophylline; published; spread +- 2.1.

Take `Cn1c(=O)c2[nH]cnc2n(C)c1=O` [regular theophylline, theophylline]: the excretion half life was 9.0 h.
